Experimental data as given in patent US12077503B2, “Substituted cyclic amides and their use as herbicides” (FMC CORPORATION, priority 2015, dated 2024).

How the values were obtained:
Format in all cases: in vivo
[1] = system: barnyardgrass (Echinochloa crus-galli); test: Test A postemergence; settings: Echinochloa crus-galli, post-emergence, 240 h; for pest or weed control at 125 g/ha: 125 g ai/ha, postemergence, visual injury on 0 to 100 scale (0 no effect, 100 complete control), approx. 10 d, read-out: Barnyardgrass plant response rating; for pest or weed control at 31 g/ha: Postemergence, 31 g ai/ha, visual injury after approx. 10 d, 0 to 100 scale, 0 no effect, 100 complete control, read-out: Plant response rating, Barnyardgrass
Outline: (§1)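 Preemergence directed soil spray on seeded pots, or postemergence application to plants 2–10 cm, one- to two-leaf. Solvent mixture non-phytotoxic, with surfactant. Scored ~10 d later, visually, 0–100 vs untreated.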

[2] = system: giant foxtail (Setaria faberii); test: Test A postemergence; settings: Setaria faberi, post-emergence, 240 h; for pest or weed control at 125 g/ha: 125 g ai/ha, postemergence, visual injury on 0 to 100 scale (0 no effect, 100 complete control), approx. 10 d, read-out: Foxtail, Giant plant response rating; for pest or weed control at 31 g/ha: Postemergence, 31 g ai/ha, visual injury after approx. 10 d, 0 to 100 scale, 0 no effect, 100 complete control, read-out: Plant response rating, Foxtail, Giant
Outline: as §1

[3] = system: Galium (catchweed bedstraw, Galium aparine); test: Test A postemergence; settings: Galium, post-emergence, 240 h; for pest or weed control at 125 g/ha: 125 g ai/ha, postemergence, visual injury on 0 to 100 scale (0 no effect, 100 complete control), approx. 10 d, read-out: Galium plant response rating; for pest or weed control at 31 g/ha: Postemergence, 31 g ai/ha, visual injury after approx. 10 d, 0 to 100 scale, 0 no effect, 100 complete control, read-out: Plant response rating, Galium
Outline: as §1

[4] = system: pigweed (Amaranthus retroflexus); test: Test A postemergence; settings: Amaranthus retroflexus, post-emergence, 240 h; for pest or weed control at 125 g/ha: 125 g ai/ha, postemergence, visual injury on 0 to 100 scale (0 no effect, 100 complete control), approx. 10 d, read-out: Pigweed plant response rating; for pest or weed control at 31 g/ha: Postemergence, 31 g ai/ha, visual injury after approx. 10 d, 0 to 100 scale, 0 no effect, 100 complete control, read-out: Plant response rating, Pigweed
Outline: as §1

Kochia (Kochia scoparia) [5] = test: Test A postemergence; settings: Bassia scoparia, post-emergence, 240 h; for pest or weed control at 125 g/ha: 125 g ai/ha, postemergence, visual injury on 0 to 100 scale (0 no effect, 100 complete control), approx. 10 d, read-out: Kochia plant response rating; for pest or weed control at 31 g/ha: Postemergence, 31 g ai/ha, visual injury after approx. 10 d, 0 to 100 scale, 0 no effect, 100 complete control, read-out: Plant response rating, Kochia
Outline: as §1

[6] = system: wheat (Triticum aestivum); test: Test A postemergence; settings: Triticum aestivum, post-emergence, 240 h; for plant injury at 125 g/ha: 125 g ai/ha, postemergence, visual injury on 0 to 100 scale (0 no effect, 100 complete control), approx. 10 d, read-out: Wheat plant response rating; for plant injury at 31 g/ha: Postemergence, 31 g ai/ha, visual injury after approx. 10 d, 0 to 100 scale, 0 no effect, 100 complete control, read-out: Plant response rating, Wheat
Outline: as §1

corn (Zea mays) = test: Test A postemergence; settings: Zea mays, post-emergence, 240 h; for plant injury at 125 g/ha: 125 g ai/ha, postemergence, visual injury on 0 to 100 scale (0 no effect, 100 complete control), approx. 10 d, read-out: Corn plant response rating; for Corn plant response rating (crop injury, 0 = no effect, 100 = complete kill) at 31 g/ha: Postemergence, 31 g ai/ha, visual injury after approx. 10 d, 0 to 100 scale, 100 complete control
Outline: as §1

[7] = system: ryegrass, Italian (Italian ryegrass, Lolium multiflorum); test: Test A postemergence; settings: Lolium multiflorum, post-emergence, 240 h; for pest or weed control at 125 g/ha: 125 g ai/ha, postemergence, visual injury on 0 to 100 scale (0 no effect, 100 complete control), approx. 10 d, read-out: Ryegrass, Italian plant response rating; for pest or weed control at 31 g/ha: Postemergence, 31 g ai/ha, visual injury after approx. 10 d, 0 to 100 scale, 0 no effect, 100 complete control, read-out: Plant response rating, Ryegrass, Italian
Outline: as §1

[8] = system: ragweed (common ragweed, Ambrosia elatior); test: Test A postemergence; settings: Ambrosia artemisiifolia, post-emergence, 240 h; for pest or weed control at 125 g/ha: 125 g ai/ha, postemergence, visual injury on 0 to 100 scale (0 no effect, 100 complete control), approx. 10 d, read-out: Ragweed plant response rating; for pest or weed control at 31 g/ha: Postemergence, 31 g ai/ha, visual injury after approx. 10 d, 0 to 100 scale, 0 no effect, 100 complete control, read-out: Plant response rating, Ragweed
Outline: as §1

[9] = system: blackgrass (Alopecurus myosuroides); test: Test A postemergence; settings: Alopecurus myosuroides, post-emergence, 240 h; for pest or weed control at 125 g/ha: 125 g ai/ha, postemergence, visual injury on 0 to 100 scale (0 no effect, 100 complete control), approx. 10 d, read-out: Blackgrass plant response rating; for pest or weed control at 31 g/ha: Postemergence, 31 g ai/ha, visual injury after approx. 10 d, 0 to 100 scale, 0 no effect, 100 complete control, read-out: Plant response rating, Blackgrass
Outline: as §1

[10] = system: barnyardgrass (Echinochloa crus-galli); test: Test B flooded paddy test; settings: Echinochloa crus-galli, 250 g ai/ha, Flood; 0 to 100 scale where 0 is no effect and 100 is complete control; read-out: Barnyardgrass plant response rating
Outline: (§2)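 Flooding to 3 cm over soil accompanied treatment, which consisted of adding compound to the standing water around 2-leaf plants; depth was then maintained. Visual assessment versus controls followed at 13 to 15 d (scale 0–100, 0 meaning no effect).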

[11] = system: sedge, umbrella (small-flower umbrella sedge, Cyperus difformis); test: Test B flooded paddy test; settings: Cyperus difformis, 250 g ai/ha, Flood; 0 to 100 scale where 0 is no effect and 100 is complete control; read-out: Sedge, Umbrella plant response rating
Outline: as §2

rice (Oryra sativa) = test: Test B flooded paddy test; settings: Oryza sativa, 250 g ai/ha, Flood; 0 to 100 scale where 0 is no effect and 100 is complete control; read-out: Rice plant response rating
Outline: as §2

[12] = system: ducksalad (Heteranthera limosa); test: Test B flooded paddy test; settings: Heteranthera limosa, 250 g ai/ha, Flood; 0 to 100 scale where 0 is no effect and 100 is complete control; read-out: Ducksalad plant response rating
Outline: as §2

[13] = system: barnyardgrass (Echinochloa crus-galli); test: Test A preemergence; settings: Echinochloa crus-galli, pre-emergence, 240 h, 0 to 100 scale where 0 is no effect and 100 is complete control, read-out: Barnyardgrass plant response rating; for pest or weed control at 31 g/ha: 31 g ai/ha, Preemergence; for pest or weed control at 125 g/ha: 125 g ai/ha, preemergence, approx. 10 d
Outline: as §1

[14] = system: giant foxtail (Setaria faberii); test: Test A preemergence; settings: Setaria faberi, pre-emergence, 240 h, 0 to 100 scale where 0 is no effect and 100 is complete control, read-out: Foxtail, Giant plant response rating; for pest or weed control at 31 g/ha: 31 g ai/ha, Preemergence; for pest or weed control at 125 g/ha: 125 g ai/ha, preemergence, approx. 10 d
Outline: as §1

[15] = system: pigweed (Amaranthus retroflexus); test: Test A preemergence; settings: Amaranthus retroflexus, pre-emergence, 240 h, 0 to 100 scale where 0 is no effect and 100 is complete control, read-out: Pigweed plant response rating; for pest or weed control at 31 g/ha: 31 g ai/ha, Preemergence; for pest or weed control at 125 g/ha: 125 g ai/ha, preemergence, approx. 10 d
Kochia (Kochia scoparia) [16] = test: Test A preemergence; settings: Bassia scoparia, pre-emergence, 240 h, 0 to 100 scale where 0 is no effect and 100 is complete control, read-out: Kochia plant response rating; for pest or weed control at 31 g/ha: 31 g ai/ha, Preemergence; for pest or weed control at 125 g/ha: 125 g ai/ha, preemergence, approx. 10 d
Outline: as §1

[17] = system: ryegrass, Italian (Italian ryegrass, Lolium multiflorum); test: Test A preemergence; settings: Lolium multiflorum, pre-emergence, 240 h, 0 to 100 scale where 0 is no effect and 100 is complete control, read-out: Ryegrass, Italian plant response rating; for pest or weed control at 31 g/ha: 31 g ai/ha, Preemergence; for pest or weed control at 125 g/ha: 125 g ai/ha, preemergence, approx. 10 d
Outline: as §1

[18] = system: ragweed (common ragweed, Ambrosia elatior); test: Test A preemergence; settings: Ambrosia artemisiifolia, pre-emergence, 240 h, 0 to 100 scale where 0 is no effect and 100 is complete control, read-out: Ragweed plant response rating; for pest or weed control at 31 g/ha: 31 g ai/ha, Preemergence; for pest or weed control at 125 g/ha: 125 g ai/ha, preemergence, approx. 10 d
Outline: as §1

| Compound | pest or weed control at 125 g/ha [1] [%] | pest or weed control at 31 g/ha [1] [%] | pest or weed control at 125 g/ha [2] [%] | pest or weed control at 31 g/ha [2] [%] | pest or weed control at 125 g/ha [3] [%] | pest or weed control at 31 g/ha [3] [%] | pest or weed control at 125 g/ha [4] [%] | pest or weed control at 31 g/ha [4] [%] | pest or weed control at 125 g/ha (Kochia (Kochia scoparia) [5]) [%] | pest or weed control at 31 g/ha (Kochia (Kochia scoparia) [5]) [%] | plant injury at 125 g/ha [6] [%] | plant injury at 31 g/ha [6] [%] | plant injury at 125 g/ha (corn (Zea mays)) [%] | Corn plant response rating (crop injury, 0 = no effect, 100 = complete kill) at 31 g/ha (corn (Zea mays)) [%] | pest or weed control at 125 g/ha [7] [%] | pest or weed control at 31 g/ha [7] [%] | pest or weed control at 125 g/ha [8] [%] | pest or weed control at 31 g/ha [8] [%] | pest or weed control at 125 g/ha [9] [%] | pest or weed control at 31 g/ha [9] [%] | other results |
| --- | --- | --- | --- | --- | --- | --- | --- | --- | --- | --- | --- | --- | --- | --- | --- | --- | --- | --- | --- | --- | --- |
| Cc1ccc([C@H]2CN(C)C(=O)[C@@H]2C(=O)Nc2cnccc2C)cc1 [Compound 1070] | 0 | 0 | 0 | 0 | 0 | 0 | 0 | 0 | 0 | 0 | 0 | 0 | 0 | 0 | 0 | 0 | 0 | 0 | 0 | 0 | pest or weed control at 250 g/ha [10]: 0%; pest or weed control at 250 g/ha [11]: 0%; pest or weed control at 250 g/ha (rice (Oryra sativa)): 0%; pest or weed control at 250 g/ha [12]: 80%; pest or weed control at 31 g/ha [13]: 0%; pest or weed control at 125 g/ha [13]: 0%; pest or weed control at 31 g/ha [14]: 0%; pest or weed control at 125 g/ha [14]: 60%; pest or weed control at 31 g/ha [15]: 0%; pest or weed control at 125 g/ha [15]: 0%; pest or weed control at 31 g/ha (Kochia (Kochia scoparia) [16]): 0%; pest or weed control at 125 g/ha (Kochia (Kochia scoparia) [16]): 0%; pest or weed control at 31 g/ha [17]: 0%; pest or weed control at 125 g/ha [17]: 0%; pest or weed control at 31 g/ha [18]: 0%; pest or weed control at 125 g/ha [18]: 0% |
| COc1cccc([C@H]2CN(C)C(=O)[C@@H]2C(=O)Nc2cccc(F)c2F)c1F [Compound 1072] | 100 | 90 | 90 | 80 | 0 | 0 | 0 | 0 | 0 | 0 | 20 | 0 | 0 | 0 | 30 | 0 | 0 | 0 | 20 | 0 | pest or weed control at 250 g/ha [10]: 70%; pest or weed control at 250 g/ha [11]: 0%; pest or weed control at 250 g/ha (rice (Oryra sativa)): 15%; pest or weed control at 250 g/ha [12]: 80%; pest or weed control at 31 g/ha [13]: 90%; pest or weed control at 125 g/ha [13]: 100%; pest or weed control at 31 g/ha [14]: 90%; pest or weed control at 125 g/ha [14]: 100%; pest or weed control at 31 g/ha [15]: 0%; pest or weed control at 125 g/ha [15]: 0%; pest or weed control at 31 g/ha (Kochia (Kochia scoparia) [16]): 0%; pest or weed control at 125 g/ha (Kochia (Kochia scoparia) [16]): 0%; pest or weed control at 31 g/ha [17]: 0%; pest or weed control at 125 g/ha [17]: 0%; pest or weed control at 31 g/ha [18]: 0%; pest or weed control at 125 g/ha [18]: 0% |
